Results published in patent US20220195481A1, “MITOCHONDRIAL RESPIROMETRY IN FROZEN SPECIMENS” (The Regents of the University of Califormia, priority 2019, published 2022).
Square brackets hold non-standard residues; d marks the D form. Peptide text beside a SMILES is read from it. Phe(ol) = N[C@H](CO)Cc1ccccc1; Aib = CC(C)(N)C(=O)O

What was measured:
SH-SY5Y cells = assay: Respirometry (oxygen consumption rate, Seahorse XF96) in frozen SH-SY5Y cells; type: cell-based, human; conditions: MAS supplemented with 10 μg/mL Alamethicin and 100 μg/mL cytochrome c vs MAS alone; FIG. 8
Protocol: (§1) All procedures are performed at 4° C. All equipment, solutions, and consumables are pre-chilled. • 1. Re-suspend sample in 20 μL MAS buffer. Load 5 technical replicates of each condition. Leave at least 4 empty wells to determine background signal. • 2. To adhere mitochondrial particles to the bottom of the plate, centrifuge the loaded plate at 2,000×g for 5 min at 4° C. using plate carrier rotating buckets. […] After centrifugation, adjust the total volume of the wells to 150 uL by adding 130 uL MAS assay buffer per well. Supplement MAS buffer with 1-200 μg/mL cytochrome c and 1-500 μg/mL Alamethicin if maximal respiration is not reached on MAS alone. To avoid disrupting mitochondrial adherence to the bottom of the plate, add MAS using multichannel pipette pointed at a 45° angle to the top of well chamber, as instructed by the manufacturer. • 4. Incubate the plate at 37° C. in a non-CO2 incubator for 5 minutes. • 5. Insert plate into XF96 and begin assay protocol. Measure oxygen consumption rate (OCR) before and after every injection. Mix, wait, and measure times can vary between 1-7 minutes and 1-5 repetitions.
1. SH-SY5Y cells were cultured according to ATCC instructions. 2. When the cells reached 80% confluency, they were trypsinized, counted, spun down, washed in PBS, and frozen. 3. Cells were thawed on ice and re-suspended in MAS. 4. […]

[1] = test system: frozen murine liver tissue homogenate; assay: Respirometry (oxygen consumption rate, Seahorse XF96) in frozen murine liver homogenate; conditions: MAS supplemented with 100 μg/mL cytochrome c vs MAS alone; NADH and TMPD/Ascorbate injections; FIG. 3
Protocol: as §1
1. Homogenate was prepared from previously frozen murine liver tissue in MAS using glass/Teflon dounce homogenizer. The preparation was centrifuged at 1,000×g for 5 minutes at 4° C. and the supernatant transferred to a new tube. 2. […]

## CC(=O)NC(C)(C)C(=O)N1CCC[C@H]1C(=O)NC(C)(C)C(=O)N[C@@H](C)C(=O)NC(C)(C)C(=O)N[C@@H](C)C(=O)N[C@@H](CCC(N)=O)C(=O)NC(C)(C)C(=O)N[C@H](C(=O)NC(C)(C)C(=O)NCC(=O)N[C@@H](CC(C)C)C(=O)NC(C)(C)C(=O)N1CCC[C@H]1C(=O)N[C@H](C(=O)NC(C)(C)C(=O)NC(C)(C)C(=O)N[C@@H](CCC(=O)O)C(=O)N[C@@H](CCC(N)=O)C(=O)N[C@H](CO)Cc1ccccc1)C(C)C)C(C)C [Alamethicin] (Ac-[Aib]P[Aib]A[Aib]AQ[Aib]V[Aib]GL[Aib]PV[Aib][Aib]EQ[Phe(ol)])
SH-SY5Y cells
  respiration in frozen cultured human bone marrow neuroblastoma cell line: Enhances Respiration

## cytochrome c
[1]
  respiration in frozen tissue homogenates: enhances respiration
